Results on three molecules are retold here after patent US11209440B2, “T cell balance gene expression, compositions of matters and methods of use thereof” (THE BROAD INSTITUTE, INC., priority 2014, dated 2021).

Test [1] deals with Th17 cells. The test can be described thus: qPCR and Nanostring signature analysis of Th17 cells treated with free fatty acids. The class given is cell-based, mouse. As to the method: (§1) (A) Naïve T cells were sorted from either WT or IL-23RGFP reporter mice, activated with plate-bound anti-CD3/anti-CD28 and differentiated with TGFβ1+IL-6 for 48 hours. […] (B) Cells from WT and Rorc^−/− mice were sorted, differentiated and treated with FFA as in A. Cells were harvested for RNA purification and qPCR. (C) Naïve WT and CD5L^−/− T cells were differentiated as in A. Cells were then lifted, washed and replated in fresh media with no addition of cytokines and in the presence of control or 5 uM of arachidonic acid (PUFA). Cytokine profile of T cells were measured after PMA/ionomycin restimulation. […] Another 48 hours later, cells were harvested for nanostring analysis (D) or qPCR (E).
Next, the contribution of lipid saturation to Th17 cell pathogenicity was studied.
(In general: In qPCR the cycle at which signal appears reflects the starting amount.)

Test [2] relates to Th17 cells. The test is described as follows: FACS of IL-17 and IL-23R.GFP in Th17 cells treated with free fatty acids. Format: cell-based, mouse. The note with it: 10 uM arachidonic acid or 20 uM palmitic acid, 48 h, FACS. How it is done: as §1
In test [3] the target is T1, Rorγt (Mus musculus, UniProt P51450).
T1 sequence (P51450 1-495 isoform P51450-2): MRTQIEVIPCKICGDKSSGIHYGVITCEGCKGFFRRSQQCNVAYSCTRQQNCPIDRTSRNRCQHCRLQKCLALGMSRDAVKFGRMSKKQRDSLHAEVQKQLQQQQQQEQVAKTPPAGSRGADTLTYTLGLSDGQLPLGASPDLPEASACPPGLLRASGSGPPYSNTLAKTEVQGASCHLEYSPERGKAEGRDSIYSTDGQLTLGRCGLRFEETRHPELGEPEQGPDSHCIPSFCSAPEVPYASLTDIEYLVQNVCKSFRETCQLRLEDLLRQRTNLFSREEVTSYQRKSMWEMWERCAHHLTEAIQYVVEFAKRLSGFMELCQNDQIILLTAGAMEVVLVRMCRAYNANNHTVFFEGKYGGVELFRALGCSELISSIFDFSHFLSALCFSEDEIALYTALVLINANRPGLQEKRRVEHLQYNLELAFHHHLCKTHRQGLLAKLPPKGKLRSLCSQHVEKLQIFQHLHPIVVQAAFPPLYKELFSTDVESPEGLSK
The test is described as follows: Dual luciferase reporter assay in EL4 cells stably transfected with Rorγt vector. Also noted: expressed in transfected cells; host or cells: EL4 cells, stably transfected. The class given is cell-based. To be noted: EL4 cells with Rorγt and CD5L vector; 5, 0.5, 0.05 μM titration. How it is done: Lipidome analysis of Th17 cells. (A) WT and CD5L^−/− naïve T cells were differentiated as in FIG. 46B in the presence of cytokines as indicated. Cells and supernatant were harvested at 96 hours and subjected to MS/LC. Three independent mouse experiments were performed. […] (B) Expression of representative metabolites including a cholesterol ester and a PUFA-containing TAG species. FIG. 48 C, D, E, F-J show as follows: (C) Metabolomic analysis of independent mouse experiments where T cells were differentiated under various cytokine conditions as indicated and harvested at 48 h and 96 h. (D,E) Rorγt ChIP from Th17 cells differentiated as described in A. under various conditions as indicated. F-K. Dual luciferase reporter assay was performed in EL4 cells stably transfected with a control vector or Rorγt vector. (F, G) CD5L retroviral vector was cotransfected in F and G at 0, 25, 50 and 100 ng/well. […] All ChIP and luciferase assay are representative of at least 3 independent experiments.
A general note: In a reporter assay the amount or activity of a reporter protein is the signal.

For test [4], the target named is T2, PROCR (Mus musculus, UniProt Q64695).
T2 construct: endogenous in cells; host or cells: primary naïve CD4+ T cells polarised to Th17 (TGF-β1 + IL-6)
T2 sequence (Q64695 18-242): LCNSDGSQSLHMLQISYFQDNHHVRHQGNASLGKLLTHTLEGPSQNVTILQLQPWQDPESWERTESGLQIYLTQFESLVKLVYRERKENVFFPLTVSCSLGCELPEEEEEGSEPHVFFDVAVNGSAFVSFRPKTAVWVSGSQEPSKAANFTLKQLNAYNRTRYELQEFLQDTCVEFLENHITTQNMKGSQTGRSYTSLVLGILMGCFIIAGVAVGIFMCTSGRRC
The test can be described thus: Intracellular IFN-γ/IL-17 staining and IL-17 ELISA of Th17 cells differentiated with activated protein C. The class given is cell-based. To be noted: aPC 300 nM; flow cytometry day 3, ELISA day 3 and 5. How it is done:
FIG. 20A depicts how naïve CD4+ T cells were differentiated into Th17 cells by anti-CD3/anti-CD28 stimulation in the presence of activated protein C (aPC, 300 nM), the ligand of PROCR. On day 3, cells were stimulated with PMA and Ionomycin for 4 hr, stained intracellularly for IFN-γ and IL-17 and analyzed by flow cytometry. FIG. 20B depicts IL-17 production from Th17 cells (TGF-β+IL-6) differentiated with or without activated protein C (aPC and Ctl, respectively) was assessed by ELISA on Day 3 and 5. FIG. 20C depicts how naïve CD4+ T cells were polarized under Th17 conditions (TGF-β+IL-6), transduced with either GFP control retrovirus (Ctl RV) or PROCR-expressing retrovirus (PROCR RV). Intracellular expression of IFN-γ and IL-17 in GFP+ cells were assessed by flow cytometry. FIG. 20D depicts how naïve CD4+ T cells from EPCR δ/δ mice and control mice were polarized under Th17 conditions with TGF-β1 and IL-6. Intracellular expression of IFN-γ and IL-17 were assessed by flow cytometry.
For orientation: ELISA stands for enzyme-linked immunosorbent assay.

The test system of test [5] is EAE. The test is described as follows: EAE (experimental autoimmune encephalomyelitis) clinical scoring. Format: in vivo, mouse. The note with it: schematic of PROCR regulation (FIG. 26D). An excerpt: FIGS. 26A-26D are a series of graphs and illustrations depicting that PROCR deficiency exacerbates EAE severity. FIG. 26A depicts frequency of CD4+ T cells expressing IL-17 and PROCR isolated from EAE mice 21d after immunization with MOG35-55. FIG. 26B depicts how EAE was induced by adoptive transfer of MOG35-55-specific 2D2 cells transduced with a control retrovirus (Ctl_GFP) or a PROCR-expression retrovirus (PROCR_RV) and differentiated into Th17 cells. Mean clinical scores and summaries for each group are shown. Results are representative of one of two experiments. FIG. 26C depicts how Rag1−/− mice were reconstituted with either PROCR-deficient (EPCR δ/δ→Rag1−/−) or WT T cells (WT→Rag1−/−) and immunized with MOG35-55 to induce EAE. The mean clinical score of each group is shown. Results are representative of one of two experiments. FIG. 26D depicts a schematic representation of PROCR regulation. Rorγt, IRF4, and STAT3 induce PROCR expression.
CyTOF and flow cytometry: Active induction of EAE and disease analysis: For active induction of EAE, mice were immunized by subcutaneous injection of 100 μg MOG (35-55) ([…]) (SEQ ID NO: 1395) in CFA, then received 200 ng pertussis toxin intraperitoneally (List Biological Laboratory) on days 0 and 2. […]

The target of test [6] is T2, PROCR. The test can be described thus: qRT-PCR of pathogenic/non-pathogenic signature genes in Th17 cells differentiated in the presence of activated protein C. The class given is cell-based. An excerpt:
FIG. 23A depicts quantitative RT-PCR analysis of mRNA expression of several pathogenic signature genes in Th17 cells differentiated with TGFβ1 and IL-6 in the presence of activated protein C (aPC) for 3 days in vitro. FIG. 23B depicts quantitative RT-PCR analysis of mRNA expression of several pathogenic signature genes in naïve CD4^+ T cells polarized under Th17 conditions, transduced with either GFP control retrovirus (Control RV) or PROCR-expressing retrovirus (PROCR RV) for 3 days. FIG. 23C depicts quantitative RT-PCR analysis of mRNA expression of several pathogenic signature genes in Th17 cells from EPCR δ/δ mice and control mice differentiated with TGFβ1 and IL-6 for 3 days in vitro.
FIGS. 32A-32D are a series of graphs depicting how PROCR and PD-1 expression affects Th17 pathogenicity. FIG. 32A depicts signature genes of pathogenic and non-pathogenic Th17 cells. Naïve CD4+ T cells were differentiated into non-pathogenic (TGFβ1+IL-6) or pathogenic (TGFβ3+IL-6 or IL-β1+IL-6) Th17 cells and PROCR expression was determined by quantitative PCR. FIG. 32B depicts how naïve WT or PROCRd/d CD4+ T cells were stimulated under Th17 polarizing conditions (TGFβ1+IL-6) in the presence or absence of aPC. Quantitative expression of three pathogenic signature genes was determined on day 3. […] Mice were monitored for EAE. […] Mice were monitored for EAE.

“Also recorded” adds a separate entry of the source.

For `CCCCCCCCCCCCCCCC(=O)O` [SFA, palmitic acid], in test [1] (WT Th17 cells (TGFβ1+IL-6), 25 uM palmitic acid, Nanostring nCounter), the “316 gene signature of Th17 cell differentiation and function” value is given as “more similar to CD5L^−/− Th17 cells”. Besides, in test [1] (qPCR), the Il22 expression entry is on record as “increased”; the “expression of key pathogenicity signature genes Il10, Il23r, Ccl5, Csf2 and Lag3” value was “reciprocally regulated”. Moreover, the “percentage of IL-23R.GFP+ CD4 T cells” value in test [2] (IL-23RGFP reporter Th17 (TGFβ1+IL-6) expanded with IL-23) was “increased the expression of both IL-17 and IL-23R expression, but this effect was not significant”. The “percentage of IL-17+ CD4 T cells” value in test [2] (WT Th17 (TGFβ1+IL-6) expanded with IL-23) was “increased the expression of both IL-17 and IL-23R expression, but this effect was not significant”.
Turning to `CC(CO)CCC[C@@H](C)[C@H]1CC[C@H]2[C@@H]3C(O)C=C4C[C@@H](O)CC[C@]4(C)[C@H]3CC[C@]12C` (stereo partly shown) [7, 27 dihydroxycholesterol, 7, 27-dihydroxycholesterol], in test [3], the “Il17 reporter transcription under CD5L-driven suppression” value is “rescued the CD5L-driven suppression”.

B1: activated protein C: the ligand of PROCR (protein, UniProt P04070 200-461, looked up)
Vitamin K-dependent protein C …: DTEDQEDQVDPRLIDGKMTRRGDSPWQVVLLDSKKKLACGAVLIHPSWVLTAAHCMDESKKLLVRLGEYDLRRWEKWELDLDIKEVFVHPNYSKSTTDNDIALLHLAQPATLSQTIVPICLPDSGLAERELNQAGQETLVTGWGYHSSREKEAKRNRTFVLNFIKIPVVPHNECSEVMSNMVSENMLCAGILGDRQDACEGDSGGPMVASFHGTWFLVGLVSWGEGCGLLHNYGVYTKVSRYLDWIHGHIRDKEAPQKSWAP
modifications: Vitamin K-dependent protein C heavy chain activated two-chain form
notes: the ligand of PROCR
As for B1, the “cytokine production (IFN-γ, IL-17) from Th17 cells” value in test [4] is “not essential for cytokine production”. Moreover, the “pathogenicity in EAE” value in test [5] is “reduced pathogenicity”. Also, the “mRNA expression of pathogenic signature genes in Th17 cells” value in test [6] (Th17 cells differentiated with TGFβ1 and IL-6 in the presence of aPC for 3 days, quantitative RT-PCR) was “impairs some pathogenic signature genes; also recorded: downregulation of the pathogenic signature genes IL-3, CXCL3, CCL4 and Pdp; also recorded: decreased the expression of some of the genes”. Besides, the “expression of non-pathogenic signature genes in Th17 cells” value in test [6] (Th17 polarizing conditions (TGFβ1+IL-6) with aPC, day 3) is given as “induces some non-pathogenic signature genes”.
